From patent publication US7632633B2, “Method for determining the degree of protein oxidation in a skin sample using oxidized protein in stratum corneum as an indicator” (Shiseido Company, Ltd., priority 2004, dated 2009)

What was measured:
[1] = test system: stratum corneum of porcine skin; experiment: Stratum corneum transparency of dry pig skin after oxidation treatment (observation); conditions: dry pig skin immersed in acrolein 0, 1, 10 and 100 mM for 3 hours; dried (humidity 50%, 25° C.), observed over 24 hours
Protocol: Dry pig skin (Alloask, Taiho Pharmaceutical) was immersed in water for 3 days. The pig skin was subjected to oxidation treatment by immersing in an acrolein solution (Tokyo Chemical Industry) at 0, 1, 10 and 100 mM for 3 hours. Acrolein oxidizes by acting on protein resulting in the formation of an aldehyde-protein adduct. Following oxidation treatment, the pig skin was rinsed with water for 1 hour. After rinsing, the pig skin was initially dried (humidity: 50%, temperature: 25° C.) in a Petri dish with the stratum corneum side facing upward followed by observation of the dried pig skin over the course of 24 hours.

[2] = test system: stratum corneum of porcine skin; experiment: Stratum corneum water holding capacity of dry pig skin after oxidation treatment (SKINCON-200); conditions: dry pig skin immersed in acrolein 0, 1, 10 and 100 mM for 3 hours; dried at humidity 50%, temperature 250° C., measured 15 minutes later
Protocol: Dry pig skin (Alloask, Taiho Pharmaceutical) was immersed in water for 3 days. The pig skin was removed and subjected to oxidation treatment by immersing in an acrolein solution (Tokyo Chemical Industry) at 0, 1, 10 and 100 mM for 3 hours. Acrolein oxidizes by acting on protein resulting in the formation of an aldehyde-protein adduct. Following oxidation treatment, the pig skin was rinsed with water for 1 hour. After rinsing, the pig skin was initially dried (humidity: 50%, temperature: […]) in a Petri dish with the stratum corneum side facing upward followed 15 minutes later by measuring the moisture content of the stratum corneum with the SKINCON-200 (IBS).
The results of measuring the moisture content of the stratum corneum are shown in FIG. 1 as skin conductance values.

[3] = test system: stratum corneum of black pig skin; experiment: Stratum corneum water holding capacity of black pig skin after oxidation treatment (SKINCON-200); conditions: 1 hour
Protocol: Black pig skin was subjected to oxidation treatment for 1 hour with a 10 mM acrolein solution. After rinsing with water for 1 hour, the water was carefully wiped off, and the change in the water content of the stratum corneum over time was measured with the SKINCON-200.
Black pig skin was treated for 1 hour with 20 mM hypochlorous acid. After rinsing with water for 1 hour, the water was carefully wiped off, and the change in the water content of the stratum corneum over time was measured with the SKINCON-200.

[4] = test system: stratum corneum of human forearm skin; experiment: Stratum corneum water holding capacity of human forearm skin after occlusion treatment (SKINCON-200); format: in vivo; conditions: occlusion 1 hour, 20 mM hypochlorous acid vs PBS
Protocol: Human forearm skin was subjected to occlusion treatment for 1 hour with PBS or 20 mM hypochlorous acid. After rinsing with water for 1 hour, the water was carefully wiped off, and the change in the water content of the stratum corneum over time was measured with the SKINCON-200.

| SMILES | transparency of the stratum corneum [1] | moisture content of the stratum corneum (skin conductance) [2] | change in the water content of the stratum corneum over time (ability to hold water) ([3]; 10 mM acrolein solution) | change in the water content of the stratum corneum over time (water holding capacity) [4] | change in the water content of the stratum corneum over time (ability to hold water) ([3]; 20 mM hypochlorous acid) |
| --- | --- | --- | --- | --- | --- |
| C=CC=O [acrolein] | transparency decreased concentration-dependently | decrease in moisture content was observed that was dependent on the concentration | A decrease was observed in the ability of stratum corneum of the pig skin to hold water | – | – |
| OCl [hypochlorous acid] | – | – | – | decrease in water holding capacity | A decrease was observed in the ability of stratum corneum of the pig skin to hold water |
